# Measurements taken from patent US20260223841A1 (priority 2023, published 2026).
# Where two headings read alike, the source gives them in different places.
# Key:
# [1] = system: Xylella fastidiosa subsp. multiplex IVIA5901; assay: microbe, parasite or virus in culture; format: cell-based; conditions: 0.5 h, read-out: minimum bactericidal concentration (MBC)
# [2] = system: Xylella fastidiosa subsp. pauca DeDonno; assay: microbe, parasite or virus in culture; format: cell-based; conditions: 0.5 h, read-out: minimum bactericidal concentration (MBC)
# [3] = system: Erwinia amylovora EPS101; format: cell-based
# [4] = system: Xylella fastidiosa subsp. fastidiosa IVIA5387.2; format: in vivo, Prunus dulcis; conditions: 33 mg/ml trunk microinjection, 2 mg/plant, preventive + curative
# [5] = system: Liberibacter crescens strain BT-1 (cultured surrogate for Candidatus Liberibacter spp.); conditions: 100 and 250 μg/ml; 30 or 120 minutes of contact
# [6] = system: Xylella fastidiosa subsp. fastidiosa IVIA5387.2
# [7] = system: Liberibacter crescens strain BT-1 (cultured surrogate for Candidatus Liberibacter spp.); assay: microbe, parasite or virus in culture; conditions: 0.5 h, read-out: minimum bactericidal concentration (MBC)
# [8] = system: Xylella fastidiosa subsp. fastidiosa IVIA5387.2; assay: microbe, parasite or virus in culture; conditions: 0.5 h, read-out: minimum bactericidal concentration (MBC)
# [9] = 50 μg/ml, after 30 min of contact
# [10] = 50 μg/ml, after 120 min of contact
smiles,measurement,setting,value
"CCCCCCCCCCCC(=O)OCC(O)CO (stereo not shown) [Compound of formula (I), 2,3-dihydroxypropyl dodecanoate]",MBC,[1],< 250 mg/L
same,MBC,[2],< 250 mg/L
same,"bactericidal effect (bacterial growing, not quantitative)",[3],no bactericidal effect
same,"severity scale score (almond leaf scorch, 0-5)",[4]; 55 days after infection,0.11
same,"severity scale score (almond leaf scorch, 0-5)",[4]; 62 days after infection,0.44
same,"severity scale score (almond leaf scorch, 0-5)",[4]; 82 days after infection,0.42
same,"severity scale score (almond leaf scorch, 0-5)",[4]; 115 days after infection,1.17
same,"severity scale score (almond leaf scorch, 0-5)",[4]; 140 days after infection,2.33
same,mortality (no growth observed),[5],about 100%
same,survival,[6]; [9],about 27.6%
same,survival (log CFU/ml),[6]; [9],2.26 log CFU/ml
same,survival,[6]; [10],~23.1%
same,survival (Log CFU/ml),[6]; [10],1.87 Log CFU/ml
same,mortality (no growth observed),"[6]; 100 and 75 μg/ml, 30 or 120 minutes of contact",about 100%
same,MBC,[7],< 100 mg/L
same,MBC,[8],~50 mg/L
